Laboratory results taken from patent US11730178B2, “Extraction method” (THE PRODUCT MAKERS (AUSTRALIA) PTY LTD, priority 2012, dated 2023).

Legend:
[1] = target: yeast (Saccharomyces cerevisiae) α-glucosidase; experiment: α-Glucosidase inhibition (hydrolysis of 4-methylumbelliferyl-α-D-glucopyranoside, fluorescence); type: biochemical; details: pH 5.5, 20 minutes at 37° C.
Protocol: As known in the art, α-glucosidase inhibitory activity can be measured as the ability of test samples to prevent the hydrolysis of 4-methylumbelliferyl-α-D-glucopyranosidase by yeast (Saccharomyces cerevisiae) α-glucosidase using known techniques. As will be understood by the skilled person, acarbose can be included in the assay as a positive control.
α-Glucosidase inhibitory activity is measured as the ability of test samples to prevent the hydrolysis of 4-methylumbelliferyl-α-D-glucopyranosidase by yeast (Saccharomyces cerevisiae) α-glucosidase.
Each sample (0.5 mL) was weighed and freeze-dried to determine its % dry matter. The samples were then resuspended in either dimethyl sulfoxide (DMSO) or DMSO:water (1:1) to a concentration of 15 mg/mL, after which the samples were serially diluted.
The substrate, 4-methylumbelliferyl-α-D-glucopyranoside, and enzyme, yeast α-glucosidase, were prepared in the assay buffer, sodium acetate buffer (pH 5.5). The substrate (final concentration 83 μM, 45 μL) was added to 96-well plates containing 45 μL enzyme (final concentration 1.7 mU/mL) and 10 μL of sample. […] The reaction was stopped by the addition of 100 mM sodium glycine buffer (100 μL, pH 10.6), the plate was shaken for a further 30 seconds, and the fluorescence intensity was measured at λex 355 nm and λem 460 nm. […]

[2] = tested on: PEG2 production from 3T3 cells; experiment: PEG2 (prostaglandin E2) inhibition in 3T3 cells stimulated with calcium ionophore, EIA kit; type: cell-based; details: Mus musculus, NIH3T3, at 0.488 μg/mL, read-out: highest PEG2 inhibition observed
Description: An extract according to the invention can also be tested for anti-inflammatory activity. By way of a non-limiting example, the extracts may be tested for prostaglandin E2 (PGE2) activity. As known in the art, PGE2 inhibitory activity can be measured by the ability of test samples to inhibit PGE2 production in 3T3 cells when stimulated with calcium ionophore. As understood in the art, aspirin and ibuprofen may be included in the assay as a positive control. The in vitro production of PEG2 from 3T3 cells was measured using the Cayman Chemical Prostaglandin E2 monoclonal EIA (Enzyme Immuno Assay) kit. The cells were exposed to samples 3 and 6 and stimulated with calcium ionophore. The cell supernatants were then assayed for PEG2 production. The cell cytotoxicity of the samples was tested against 3T3 cells to confirm that the observed PEG2 inhibition was not due to cell cytotoxicity. Aspirin and ibuprofen were used as positive controls.

Molecule | α-glucosidase inhibitory activity IC50 [1] [µg/mL] | inhibition at 0.488 µg/mL [2] [%]
fucoidan | 0.17 | –
CC(C)Cc1ccc(C(C)C(=O)O)cc1 (centres unmarked) [ibuprofen] | – | 42.1
